According to patent US20060079537A1, “2-Substitutued triazolopyrimidines, methods and intermediate products for the production thereof, the use of the same controlling pathogenic fungi, and agents containing said compounds” (priority 2002, published 2006):

Test system: Alternaria solani
Assay: Activity against early blight of tomato caused by Alternaria solani, protective application
Type: in vivo
Conditions: 250 ppm active compound, sprayed to runoff one day before infection; visual rating after 5 days; untreated plants 100% infected
Procedure: The active compounds were formulated as a stock solution prepared using 0.25% by weight of active compound in acetone of DMSO. 1% by weight of the emulsifier Uniperol® EL (wetting agent having emulsifying and dispersant action based on ethoxylated alkylphenols) was added to this solution, and the solution was diluted with water to give the desired concentration.
Leaves of potted plants of the tomato cultivar: “Large Fruited St. Pierre” were sprayed to runoff point with an aqueous suspension having the concentration of active compound stated below. The next day, the leaves were infected with an aqueous spore suspension of Alternaria solani in a 2% biomalt solution having a density of 0.17×10^6 spores/ml. The plants were then placed in a water-vapor-saturated chamber at 20-22° C. After 5 days, the blight on the untreated but infected control plants had developed to such an extent that the infection could be determined visually in %.

CSc1nc2nc(C)c(-c3c(F)cc(F)cc3F)c(N3CCC(C)CC3)n2n1 [Example 3, 5-methyl-6-(2,4,6-trifluorophenyl)-7-(4-methylpiperidin-1-yl)-2-thiomethyl-[1,2,4]-triazolo[1,5-a]pyrimidine]
infection: 20%
